# Measurements reported in BindingDB's records for doi:10.1016/j.bmcl.2008.09.059 (Seoul National University, 2008).
# Target: Isocitrate lyase (Candida albicans, UniProt Q9P8Q7)
# Experiment: Inhibition of candida albicans isocitrate lyase
# Isocitrate lyase, sequence (Q9P8Q7 whole entry): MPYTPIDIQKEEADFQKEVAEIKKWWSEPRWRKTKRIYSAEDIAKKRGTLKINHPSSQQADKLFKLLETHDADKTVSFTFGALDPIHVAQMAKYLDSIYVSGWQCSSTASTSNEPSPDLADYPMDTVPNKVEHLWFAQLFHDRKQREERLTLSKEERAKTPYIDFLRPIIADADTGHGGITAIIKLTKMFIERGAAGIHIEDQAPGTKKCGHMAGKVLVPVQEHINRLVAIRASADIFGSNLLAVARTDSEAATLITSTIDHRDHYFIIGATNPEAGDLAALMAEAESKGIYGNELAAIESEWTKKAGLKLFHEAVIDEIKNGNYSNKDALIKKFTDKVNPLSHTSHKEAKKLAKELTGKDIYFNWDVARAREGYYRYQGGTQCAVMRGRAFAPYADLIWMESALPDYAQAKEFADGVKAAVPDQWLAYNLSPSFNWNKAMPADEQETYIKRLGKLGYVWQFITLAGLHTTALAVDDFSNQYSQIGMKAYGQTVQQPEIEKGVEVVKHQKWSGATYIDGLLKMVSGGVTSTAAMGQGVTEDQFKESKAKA
smiles,measurement,value
CC1=CC[C@H]2C(C)(C)CCC[C@]2(C)[C@H]1C[C@@H](OS(=O)(=O)O)[C@H](C)CCC/C(C)=C/Cc1cc(O)ccc1O,IC50,158 µM
